The source made the active and inactive calls.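 Rule for the calls: active = fitted half-maximal concentration below 30 µM for cell fluorescence in pump-free yeast, so likely self-fluorescent; inactive = the rest.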
assay: concentration-dependent intrinsic compound fluorescence, S. cerevisiae AD/pABC3, flow cytometry, Cherry Pick1 hits, artefact control for antifungal efflux pump inhibitor project, dose response (AID 588620);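 note: red emission of unstained cells excited at 488 nm measured in PE-Texas Red channel; cell median fluorescence as percent of DMSO wells so 100% equals vehicle baseline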; details: S. cerevisiae AD/pABC3 compound autofluorescence, flow cytometry; at 33.1 µM (top of the series)

Row | SMILES | fluorescence response, % of control
1 | CCSc1cc(N2CCCC2)nc(-c2ccc(C)cc2)n1 | 101% (inactive)
2 | CCc1ccc(C2=NN(S(C)(=O)=O)C(c3cccs3)C2)cc1 (stereo not drawn) | 113% (inactive)
3 | NC(=S)NNC(=O)[C@@H]1CCCC[C@@H]1C(=O)O | 117% (inactive)
4 | COc1ccc(-c2sc3cc(OC)ccc3c2-c2ccc(OCCN3CCOCC3)cc2)cc1 | 153% (inactive)
5 | Nc1ccc2nc(-c3cccc(-c4nc5ccc(N)cc5[nH]4)c3)[nH]c2c1 | 99.3% (inactive)
6 | O=C(CCCc1ccccc1)Nc1cccc([N+](=O)[O-])c1 | 86.2% (inactive)
7 | Cc1cccc(C)c1NC(=O)C1CC2CCC1C2 (stereo not drawn) | 102% (inactive)
8 | CSc1ccccc1NC(=O)c1cc(-c2ccc3c(c2)OCO3)on1 | 101% (inactive)
9 | CCOC(=O)CC(=O)c1cc(OC)c(OC)c(OC)c1 | 96.1% (inactive)
10 | COc1ccc(C2CC(c3ccccc3C(F)(F)F)=NN2c2ccc(S(N)(=O)=O)cc2)cc1 (stereo not drawn) | 106% (inactive)
11 | CC(C)c1ccc(S(=O)(=O)Nc2ccc(O)c(Sc3ncn[nH]3)c2)cc1 | 151% (inactive)
12 | COc1cccc(-c2sc3cc(OC)c(OC)cc3c2-c2ccc(OCCN3CCCCC3)cc2)c1 | 112% (inactive)
13 | Cc1cc(C(=O)COC(=O)c2ccc[nH]c2=O)c(C)n1-c1ccc(F)cc1 | 102% (inactive)
14 | CC(C)C(=O)N1CCC2(CC1)Oc1ccc(Cl)cc1C(=O)C21CC(c2ccc(Cl)cc2)=NO1 (stereo not drawn) | 111% (inactive)
15 | Cc1ccc(C)c(N2CCN(C(=O)C3CCCN(c4ncnc5c4nc4n5CCCCC4)C3)CC2)c1 (stereo not drawn) | 89.1% (inactive)
16 | O=C(Cn1c(COc2ccccc2)nc2ccccc21)Nc1cc(Cl)c(Cl)cc1Cl | 87.6% (inactive)
17 | Cc1ccc(CN2C(=O)C(CC(C)C)Nc3ncnc(N4CCN(c5ccccc5)CC4)c32)cc1 (stereo not drawn) | 102% (inactive)
18 | O=C1c2cc(Cl)ccc2OC2(CCNCC2)C12CC(c1ccccc1)=NO2 (stereo not drawn) | 107% (inactive)
19 | COc1ccc(OC)c(-c2nc(C(N)=O)c3[nH]c(=O)n(-c4ccc(F)cc4)c3n2)c1 | 104% (inactive)
20 | O=C(COC(=O)c1ccc(Cl)cc1O)NCCN1C(=O)CSC1=O | 88.6% (inactive)

Row | SMILES | fluorescence response, % of control
21 | CC(C)(C)C(=O)CSc1nc2c(c(-c3cccs3)c1C#N)CCC2 | 92.4% (inactive)
22 | Cc1noc(C)c1C(=O)N1CCC2(CC1)Oc1ccc(F)cc1C(=O)C21CC(c2ccc(Cl)cc2)=NO1 (stereo not drawn) | 90.5% (inactive)
23 | O=C(Nc1ccc(O)cc1C(=O)O)c1ccc(NC(=O)c2ccco2)cc1 | 92.4% (inactive)
24 | O=C(c1ccoc1)N1CCC2(CC1)Oc1ccc(F)cc1C(=O)C21CC(c2ccc(Cl)cc2)=NO1 (stereo not drawn) | 116% (inactive)
25 | S=C(Nc1ccc(Cl)cc1Cl)N1CCCCC1 | 135% (inactive)
26 | COc1ncccc1C(=O)NC1CCCc2c1cnn2-c1cc(C)cc(C)c1 (stereo not drawn) | 76.4% (inactive)
27 | c1cc2c(cc1C1CCCCC1)c1c3n2CCCNC3CCC1 (stereo not drawn) | 132% (inactive)
28 | CCC(Sc1nc2ccsc2c(=O)n1Cc1ccc(C(=O)O)cc1)C(=O)Nc1ccc(C)c(Cl)c1 (stereo not drawn) | 81.2% (inactive)
29 | COc1ccc(-c2nc(Cn3c(SCc4ccc(C)cc4)nc4ccncc43)c(C)o2)cc1OC | 87.6% (inactive)
30 | Cc1ccc(C(=O)N2CCC3(CC2)Oc2ccc(Cl)cc2C(=O)C32CC(c3ccc(Cl)cc3)=NO2)s1 (stereo not drawn) | 94.5% (inactive)
31 | COC(=O)c1ccc(CN2CCC(Oc3cccc(C(=O)N4CCCC4)c3)CC2)cc1 | 95.7% (inactive)
32 | Cc1ccc(C(=O)N2CCC3(CC2)Oc2ccc(Cl)cc2C(=O)C32CC(c3cccnc3)=NO2)s1 (stereo not drawn) | 127% (inactive)
33 | CC(C)C(O)(C#CCN1CCCCC1)C(C)C | 111% (inactive)
34 | C#CC[N+](C)(C)CCCCCCCCCCCC | 117% (inactive)
35 | O=C(O)Cc1ccc(NC(=O)c2ccc(NC(=O)c3ccco3)cc2)cc1 | 109% (inactive)
36 | COc1ccc(C(=O)NC2CC(C)(C)Cc3c2cnn3-c2ccccc2)c(OC)c1 (stereo not drawn) | 115% (inactive)
37 | COc1ccc2c(-c3ccc(OCCN4CCCCC4)cc3)c(-c3ccccc3OC)sc2c1 | 102% (inactive)
38 | COc1ccc(/C=N/N=C2/NC(=O)C(CC(=O)O)S2)cc1OCc1ccc(Cl)cc1 (stereo not drawn) | 91.7% (inactive)
39 | Cc1cc(O)c(C(C)C)cc1C1(c2cc(C(C)C)c(O)cc2C)OC(=O)c2ccccc21 | 99.8% (inactive)
40 | CCOC(=O)c1c(-c2ccc(-c3ccccc3)cc2)csc1NC(=O)CNCCN(C)C | 135% (inactive)

Row | SMILES | fluorescence response, % of control
41 | CCCCn1c(N)c(N(CC(C)C)C(=O)CN2C(=O)NC3(CC(C)CC(C)(C)C3)C2=O)c(=O)[nH]c1=O (stereo not drawn) | 95.1% (inactive)
42 | O=C(CSc1nnc(Cc2cccs2)n1Cc1ccco1)Nc1ccc(Br)cc1 | 86% (inactive)
43 | CC(C)(C)C1CCC(OC(=O)C[N+]2(C)CCCC2)CC1 (stereo not drawn) | 109% (inactive)
44 | COc1ccc2cc(C#N)c(N3CCN(Cc4nnnn4CCC(C)C)CC3)nc2c1 | 113% (inactive)
45 | Clc1ccc(Cn2nc(-c3ccccc3)nc2-c2ccccc2)cc1 | 108% (inactive)
46 | CCSc1cc(N2CCOCC2)nc(-c2ccccc2)n1 | 89.7% (inactive)
47 | O=C(c1ccoc1)N1CCC2(CC1)Oc1ccc(Cl)cc1C(=O)C21CC(c2ccc(Cl)cc2)=NO1 (stereo not drawn) | 119% (inactive)
48 | O=C1C(Cc2cccc([N+](=O)[O-])c2)SC(=Nc2ccccc2)N1c1ccccc1 (stereo not drawn) | 116% (inactive)
49 | Cc1c(CCOC(=O)CC23CC4CC(CC(C)(C4)C2)C3)sc[n+]1Cc1ccc([N+](=O)[O-])cc1 | 83.6% (inactive)
50 | Nc1c(Cl)cc(C2=NCCn3nc4ccccc4c32)cc1Cl | 88.6% (inactive)
51 | C[C@H](CO)N1C[C@H](C)[C@@H](CN(C)S(=O)(=O)c2cccs2)Oc2c(NC(=O)Nc3ccc4c(c3)OCO4)cccc2C1=O | 96.9% (inactive)
52 | Cc1ccc(Cn2nnc3c(=O)[nH]c(C4CCN(S(=O)(=O)c5ccc(F)cc5)CC4)nc32)cc1 | 116% (inactive)
53 | COc1cc2c(=O)n(Cc3ccco3)c(=O)n(CC(=O)c3cccc(Br)c3)c2cc1OC | 86.2% (inactive)
54 | COc1ccc(NC(=O)Nc2cccc3c2O[C@H](CN(C)C(=O)NC2CCCCC2)[C@@H](C)CN([C@H](C)CO)C3=O)cc1 | 80.3% (inactive)
55 | CC(C)c1ccc(/C=c2\sc3nc(-c4ccncc4)nn3c2=O)cc1 | 82.5% (inactive)
56 | COc1cccc(-c2sc3ccc(OC)cc3c2-c2ccc(OCCN3CCCC3)cc2)c1 | 112% (inactive)
57 | CC(C)C(=O)N1CCC2(CC1)Oc1ccc(F)cc1C(=O)C21CC(c2ccccc2)=NO1 (stereo not drawn) | 115% (inactive)
58 | CCOc1ccc(C(=O)Nc2cccc(-c3cc4ccccc4oc3=O)c2)cc1[N+](=O)[O-] | 94.4% (inactive)

— PubChem BioAssay AID588620 (NMMLSC, 2011)
